The values below come from article PMC11106956 (Malaria Journal, 2024).

Each structure is given as a SMILES string. Like-named read-outs stand apart in the source and are kept apart here.

One series has as its system haemoglobin levels. The series is described as follows: Linear regression of pharmacokinetic parameters against change in haemoglobin; haemoglobin follow-up to 28 days. Type of series: in vivo, human (African males, Mali). As to conditions: for Correlation (regression slope) of AUC24 with change in haemoglobin / Correlation (regression slope) of CMAX with change in haemoglobin: slope (95% CI).

For another series, the system named is methaemoglobin levels. The series is described as follows: Linear regression of pharmacokinetic parameters against change in methaemoglobin. The following applies: slope (95% CI). Type of series: in vivo, human (African males, Mali).
The conditions of series [1]: single oral PQ 0.40-0.50 mg/kg; for Half-life (terminal elimination): median (range) in Table 3; for CF, proportional conversion factor between capillary and venous drug measurements, population estimate (%RSE): plasma; for MTT, absorption mean transit time, population estimate (%RSE): each compound modelled separately.
Text: (§1) This study was a part of an open-label, nonrandomized, dose-adjustment trial of the safety of SLD-PQ in G6PD-deficient and G6PD-normal males in Mali without microscopically detected malaria parasite infection. The main clinical trial was separated into two parts, i.e., Part I in adult males (aged 18–50) and Part II in children (aged 5–17). […] Only 28 adult males from the main trial provided pharmacokinetic samples and were included in this study.
(§2) After collection of day 0 samples, each participant received an oral dose of PQ according to his group assignment, after a fatty snack (biscuits) to minimized gastrointestinal symptoms. The study pharmacist prepared a dose by crushing a 15-mg tablet of PQ (Sanofi, Laval, Canada) in 15 mL of drinking water and administered the dose to the nearest 0.1 mL under direct observation. […] Capillary samples (0.5 mL) were collected at 2, 4, and 6 h post-dose. Both venous and capillary blood were collected using EDTA tubes, and centrifuged at 1100–1300×g for 10–20 min to obtain plasma samples. The samples were store immediately at − 80 °C until analysed.
(§3) All compounds were analysed using the liquid chromatography–mass spectrometry (LC–MS) method of Avula et al. [14], modified to employ an ACQUITY UHPLC™, BEH Shield RP18 column (100 mm × 2.1 mm I.D., 1.7 mm) equipped with an LC-18 guard column (Vanguard 2.1 × 5 mm, Waters Corp, Milford, MA, USA). PQ, CPQ and PQCG were separated and eluted within 10-min retention time. The mobile phase, run at a flow rate of 0.25 ml/min, consisted of 0.05% formic acid in water (A) water and 0.05% formic acid in acetonitrile (B) and was applied in a linear gradient elution. […] Samples were injected at 10 μL volume. The limits of quantification in plasma were 5 ng/mL for PQ and PQCG, and 1 ng/mL for CPQ. Quality control samples at 20 ng/mL were run at beginning and end of the batch analyses in duplicate. Intra-assay variability was less than 10%.
(§4) PQ, CPQ, and PQCG concentrations were transformed into their natural logarithms and analysed using a nonlinear mixed-effects modelling approach in NONMEM version 7.4 (Icon Development Solution, Ellicott city, MD). Pirana version 3.0.0 [15], Perl-speaks-NONMEM version 5.3.0 (PsN) [16] and R version 4.2.0 were used for automation, model evaluation, and diagnostics during the model building process. The first-order conditional estimation method with interaction (FOCE-I) was applied for the estimation method. Each compound was modelled separately. Data below the LLOQ was either omitted (M1-method) or incorporated by imputing the first LLOQ data as half of LLOQ (M6-method) [17].
(§5) Pharmacokinetic parameters were implemented as a log-normal distribution as follows: θi=θTV×expηi,θ where θi is the individual i th pharmacokinetic parameter estimate, θTV is the typical value of the population mean estimate, and ηi,θ is the inter-individual variability of the parameter θ for the i th individual, assumed to be normal distribution with zero mean and variance ω^2 . Estimated inter-individual variability below 10% was fixed to zero.
(§6) A linear association between capillary and venous plasma concentrations of all compounds was assumed and modelled using an estimated conversion factor at the population level. Unexplained residual errors were modelled separately for capillary and venous plasma concentrations and implemented as an additive error model on the log-transformed concentrations, equivalent to an exponential error on arithmetic scale.
For series [2] the following is noted: cited from earlier work.
For the next series, the system named is haemoglobin. The following applies: G6PD-deficient individual, cited from earlier work.
A further series is described as follows: clinical. The following applies: male, human, plasma, po.
Setting [3] is: G6PD-deficient individuals (n = 18).
The mark [4] stands for this setting: G6PD-normal individuals (n = 10).
The mark [5] stands for this setting: typical individual 62.5 kg, metabolites dosed as PQ molar dose 1:1.
Where [6] appears, read: background statement, literature.

What is called Tmax is the time from dosing to the highest level. Broadly, the half-life is the time needed for the level to fall by half in the phase considered. One may read the bioavailability as the share of a dose that reaches the circulation, judged against a reference dose that is usually intravenous.

Text for clinical: as §1, §2, §3, §4, §5, §6

Consider `COc1cc(NC(C)CCC(=O)O)c2ncccc2c1` (stereo not drawn) [Carboxy-primaquine], for which, in the series on haemoglobin levels (setting [3]), the “Correlation (regression slope) of AUC24 with change in haemoglobin” value was 195 (95% CI: -58.7 to 448) p = 0.123 % HB change per 1 ng·hr/mL and the “Correlation (regression slope) of CMAX with change in haemoglobin” value is on record as 9.27 (95% CI: -1.25 to 19.8) p = 0.0803 % HB change per 1 ng/mL. Besides, in the series with haemoglobin levels (setting [4]), the “Correlation (regression slope) of AUC24 with change in haemoglobin” value is listed as -206 (95% CI: -555 to 143) p = 0.210 % HB change per 1 ng·hr/mL and the “Correlation (regression slope) of CMAX with change in haemoglobin” value is -4.63 (95% CI: -18.4 to 9.13) p = 0.460 % HB change per 1 ng/mL. Moreover, in the series with methaemoglobin levels (setting [3]), the “Correlation (regression slope) of AUC24 with change in methaemoglobin” value is -1914 (95% CI: -8430 to 4602) p-value = 0.534 % mHB change per 1 ng·hr/mL and the “Correlation (regression slope) of CMAX with change in methaemoglobin” value is given as -49.4 (95% CI: -341 to 242) p-value = 0.719 % mHB change per 1 ng/mL. In the series with methaemoglobin levels (setting [4]), the “Correlation (regression slope) of AUC24 with change in methaemoglobin” value is reported as 1948 (95% CI: -12127 to 16023) p-value = 0.720 % mHB change per 1 ng·hr/mL and the “Correlation (regression slope) of CMAX with change in methaemoglobin” value is 119 (95% CI: -351 to 589) p-value = 0.521 % mHB change per 1 ng/mL. Moreover, the “Half-life (terminal elimination)” value in series [1] (n = 28) is on record as 469 (325–1870) h. In series [1] (median (range), n = 28), the “AUC24, area under the concentration-time curve up to 24 h” value is given as 8030 (1490–12,800) h × ng/mL; the “CMAX, maximum concentration” value is 338 (74.3–546) ng/mL; the “TMAX, time to maximum concentration” value is recorded as 4.57 (2.19–18.1) h. For the same molecule, in series [1], the “CF, proportional conversion factor between capillary and venous drug measurements, population estimate (%RSE)” value is 69.1 (3.83%). Moreover, the terminal elimination half-life result in series [1] (sampling only to 24 h) is “approximately 19.5 days”. Further, the “MTT, absorption mean transit time, population estimate (%RSE)” value in series [1] (typical individual 62.5 kg) is recorded as 1.24 (11.7%) h. In series [1] (setting [5]), the “CL/F, apparent elimination clearance, population estimate (%RSE)” value is given as 0.129 (28.5%) L/h and the “VC/F, apparent volume of distribution of the central compartment, population estimate (%RSE)” value is given as 93.3 (7.00%) L. In addition, in series [2] (healthy volunteers), the “terminal half-life previously reported” value is listed as 15.6 h.

Regarding `COc1cc(NC(C)CCCN)c2ncccc2c1` (stereo not drawn) [Primaquine, reference compound], the “haemoglobin decline after PQ administration” value in the series on haemoglobin levels (in vivo) is reported as “no significant haemoglobin declines”. Besides, the haematological safety result in the series on haemoglobin levels (in vivo, 0.5 mg/kg) was “haematologically safe”. Also, the “Half-life (terminal elimination)” value in series [1] (n = 28) is recorded as 7.42 (7.04–7.93) h. Also, the “CF, proportional conversion factor between capillary and venous drug measurements, population estimate (%RSE)” value in series [1] was 32.9 (6.89%). Besides, the “MTT, absorption mean transit time, population estimate (%RSE)” value in series [1] (typical individual 62.5 kg) is reported as 0.563 (18.7%) h. For the same molecule, in series [1] (setting [5]), the “CL/F, apparent elimination clearance, population estimate (%RSE)” value is 15.4 (9.57%) L/h. Also, the “predicted median reduction of haemoglobin” value in the series with haemoglobin (0.25 mg/kg SLD-PQ, 90% CI 0.12-0.65) was 0.35 g/dL. For the same molecule, the “predicted median reduction of haemoglobin” value in the series with haemoglobin (0.40 mg/kg SLD-PQ, 90% CI 0.21-1.00) was 0.56 g/dL. In “clinical”, the Tmax worked out at 0.872 h. Further, the half-life in “clinical” (Half-life (terminal elimination), median (range) in Table 3, single oral PQ 0.40-0.50 mg/kg, n = 28) is ~7.42 h. Further, in series [2] (setting [6]), the bioavailability is 96% and the terminal half-life is 5 to 6 h.
